Results as given in patent publication US7371780B2, “Use of calphostin C to treat drug-resistant tumor cells” (priority 2003, dated 2008).

Tests used:
[1] = tested on: MDA-MB231 human breast cancer cells; test: Death and cytoplasmic vacuolization, MDA-MB231; assay type: cell-based; conditions: data not shown
MCF-7TAX cells = test: Cytoplasmic shrinkage by hematoxylin/eosin staining, MCF-7TAX; assay type: cell-based, human
Description: For staining with hematoxylin and eosin, cells were grown in a six-well culture plate with each well containing a Snowcoat X-Tra™ microscope slide (Surgipath Laboratories, MB) immersed in 3 ml of H21 medium. When the cells reached 50% confluence, they were treated with 0-300 nM calphostin C, followed by a 2 hour exposure of the cultures to fluorescent light as described above. After light activation, the cells were placed in a 37° C. humidified incubator with 5% CO2 and incubated for an additional 22 hours. The cells were then stained with hematoxylin and eosin using a previously described procedure. Briefly, the media was removed from cell cultures and the cells that remained adhered to the slides were washed with PBS, fixed in formalin:acetone (1:2) for 2 min, and allowed to air dry for 10 min. After washing with distilled water, 250 μl of hematoxylin solution (BDH Chemicals, Toronto, ON) was placed on each slide and allowed to incubate with the cells for 5 min. The slides were then washed with distilled water, Scott's tap water (20 g MgSO4.7H2O, 1.5 g NaHCO3 in 1 L H2O), and a final wash with distilled water. The cells on the slides were then stained for 5 min in 250 μl of eosin solution (100 ml of 1% eosin, 10 ml of 1% phyloxine, 4 ml of glacial acetic acid, and 780 ml of 95% ethanol). The cells were then dehydrated by washing three times in 95% ethanol and twice in 100% ethanol. The small slide was then mounted on a standard microscope glass slide, and 10 randomly selected fields were viewed at 100× magnification and photographed. For each concentration of calphostin C, the total number of dead cells in each field was ascertained and expressed relative to the total number of cells in the field.

[2] = tested on: caspase-8, PARP and cytochrome C in MCF-7TAX cells; test: Immunoblotting of apoptosis markers, MCF-7TAX; assay type: cell-based, human
Description: For preparation of mitochondrial and cytoplasmic cellular fractions, MCF-7, MCF-7TAX, and MCF-7DOX cells were grown in a monolayer to 70-90% confluence on 10 cm tissue culture plates. Twenty-four hours prior to extraction, the cells were treated with 50 nM light-activated calphostin C as described above. After this treatment, the cells were trypsinized, centrifuged at 1000 rpm in a Beckman GP centrifuge and washed with PBS. To the resulting cell pellet, 1 ml of ice-cold homogenization (HM) buffer was added. This buffer consisted of 85.55 g sucrose, 1.406 g MOPS, 0.292 g EDTA, and 1 ml ethanol per liter of solution, with a final pH of 7.2. Prior to use, 0.2 ml of 0.1 M PMSF, 1 Complete™ protease inhibitor tablet (Roche Diagnostics, Laval, QC), and 20 μl of 1 M DTT was added for 100 ml of HM buffer. Cells were then lysed 10 times by homogenization in a 2 ml dounce homogenizer. Nuclei in the lysate were then pelleted by centrifugation in a microfuge tube at 70 g for 10 minutes at 4° C. and the supernatant carefully removed. The supernatant was clarified by centrifugation at 1950 g for 10 minutes at 4° C. and the pellet (containing mitochondria) was resuspended in 50 μl of HM buffer. The remaining clarified supernatant was deemed the cytoplasmic fraction. […]

[3] = tested on: MES-SA human uterine sarcoma cells; test: Death and cytoplasmic vacuolization, MES-SA; assay type: cell-based; conditions: data not shown

**Q.** How did the “induction of death and cytoplasmic vacuolization” value [1] turn out when `COc1c(C[C@@H](C)OC(=O)Oc2ccc(O)cc2)c2c3c(C[C@@H](C)OC(=O)c4ccccc4)c(OC)c(=O)c4c(O)cc(OC)c(c5c(OC)cc(O)c(c1=O)c52)c43` [calphostin C] was run?
**A.** induce both death and cytoplasmic vacuolization

**Q.** What about the “concentration required for complete cytoplasmic shrinkage” value (MCF-7TAX cells) of the same compound?
**A.** 300 nM

**Q.** What about the “percentage of cells exhibiting cytoplasmic shrinkage” value (MCF-7TAX cells; 25 nM calphostin C) of the same compound?
**A.** remained unchanged

**Q.** What about the “percentage of cells exhibiting cytoplasmic shrinkage” value (MCF-7TAX cells; 50 nM calphostin C) of the same compound?
**A.** 23%

**Q.** And the “caspase-8 and PARP cleavage (protein levels)” value ([2]; light-activated calphostin C, whole cell extracts)?
**A.** did not result in any change

**Q.** What about the “release of cytochrome C from mitochondria” value ([2]; mitochondrial and cytoplasmic fractions) of the same compound?
**A.** no clear evidence for the release of cytochrome C

**Q.** And the “induction of death and cytoplasmic vacuolization” value [3]?
**A.** induce both death and cytoplasmic vacuolization
